The source made the active and inactive calls. The rule behind the calls is not given here.
Columns and labels:
[1] = Cytotoxicity against human Ca9-22 cells assessed as cell survival at 5 uM preincubated for 4 hrs followed by 1 Jcm'-2 UVA irradiation measured after 24 hrs by MTT assay relative to control; format: cell-based; conditions: read-out: Survival
Ca9-22 [2] = assay: Anti-metastatic activity against human Ca9-22 cells assessed as reduction in heparanase mRNA expression at 2 uM preincubated for 2 hrs followed by 0.5 Jcm'-2 UVA irradiation measured after 8 hrs by qRT-PCR method; format: functional, cell-based
Ca9-22 [3] = assay: Increase in TIMP3 expression in human Ca9-22 cells at 2 uM preincubated for 2 hrs followed by 0.5 Jcm'-2 UVA irradiation by Western blot analysis; format: functional, cell-based
[4] = target: T1, Epidermal growth factor receptor (Homo sapiens) (UniProt P04626+P00533+Q15303+P21860); assay: Inhibition of EGFR/ERK signalling in human Ca9-22 cells assessed as reduction in MMP2 expression at 2 uM preincubated for 2 hrs followed by 0.5 Jcm'-2 UVA irradiation by Western blot analysis; format: cell-based
[5] = target: T1, Epidermal growth factor receptor (Homo sapiens); assay: Inhibition of EGFR/ERK signalling in human Ca9-22 cells assessed as reduction in MMP9 expression at 2 uM preincubated for 2 hrs followed by 0.5 Jcm'-2 UVA irradiation by Western blot analysis; format: cell-based
[6] = Cytotoxicity against human Ca9-22 cells assessed as inhibition of cell survival at 2 uM preincubated for 2 hrs followed by 0.5 Jcm'-2 UVA irradiation measured after 24 hrs by MTT assay relative to control; format: cell-based; conditions: read-out: INH
Ca9-22 [7] = assay: Inhibition of phosphorylated ERK level in human Ca9-22 cells at 2 uM preincubated for 2 hrs followed by 0.5 Jcm'-2 UVA irradiation by Western blot analysis; format: cell-based
[8] = target: T1, Epidermal growth factor receptor (Homo sapiens); assay: Inhibition of EGFR/ERK signalling in human Ca9-22 cells assessed as reduction in MMP2 mRNA expression at 2 uM preincubated for 2 hrs followed by 0.5 Jcm'-2 UVA irradiation measured after 8 hrs by qRT-PCR method; format: cell-based
Ca9-22 [9] = assay: Anti-metastatic activity against human Ca9-22 cells assessed as increase in syndecan-1 mRNA expression at 2 uM preincubated for 2 hrs followed by 0.5 Jcm'-2 UVA irradiation measured after 8 hrs by qRT-PCR method; format: functional, cell-based
[10] = target: T1, Epidermal growth factor receptor (Homo sapiens); assay: Inhibition of EGFR/ERK signalling in human Ca9-22 cells assessed as reduction in MMP9 mRNA expression at 2 uM preincubated for 2 hrs followed by 0.5 Jcm'-2 UVA irradiation measured after 8 hrs by qRT-PCR method; format: cell-based
[11] = target: Epidermal growth factor receptor (Homo sapiens) (UniProt P00533); assay: Inhibition of phosphorylated EGFR level in human Ca9-22 cells at 2 uM preincubated for 2 hrs followed by 0.5 Jcm'-2 UVA irradiation by Western blot analysis; format: cell-based
Ca9-22 [12] = assay: Anti-metastatic activity against human Ca9-22 cells assessed as increase in TIMP3 mRNA expression at 2 uM preincubated for 2 hrs followed by 0.5 Jcm'-2 UVA irradiation measured after 8 hrs by qRT-PCR method; format: functional, cell-based
Ca9-22 [13] = assay: Anti-metastatic activity against human Ca9-22 cells assessed as inhibition of cell migration at 2 uM preincubated for 2 hrs followed by 0.5 Jcm'-2 UVA irradiation measured after 16 hrs by wound healing assay relative to control; format: functional; conditions: Ca9-22, light or radiation study
Ca9-22 [14] = assay: Antiinvasive activity against human Ca9-22 cells assessed as cell invasion at 2 uM preincubated for 2 hrs followed by 0.5 Jcm'-2 UVA irradiation measured after 22 hrs by boyden chamber assay relative to control; format: functional

Epidermal growth factor receptor (Homo sapiens) (UniProt P00533), sequence (P00533 whole entry): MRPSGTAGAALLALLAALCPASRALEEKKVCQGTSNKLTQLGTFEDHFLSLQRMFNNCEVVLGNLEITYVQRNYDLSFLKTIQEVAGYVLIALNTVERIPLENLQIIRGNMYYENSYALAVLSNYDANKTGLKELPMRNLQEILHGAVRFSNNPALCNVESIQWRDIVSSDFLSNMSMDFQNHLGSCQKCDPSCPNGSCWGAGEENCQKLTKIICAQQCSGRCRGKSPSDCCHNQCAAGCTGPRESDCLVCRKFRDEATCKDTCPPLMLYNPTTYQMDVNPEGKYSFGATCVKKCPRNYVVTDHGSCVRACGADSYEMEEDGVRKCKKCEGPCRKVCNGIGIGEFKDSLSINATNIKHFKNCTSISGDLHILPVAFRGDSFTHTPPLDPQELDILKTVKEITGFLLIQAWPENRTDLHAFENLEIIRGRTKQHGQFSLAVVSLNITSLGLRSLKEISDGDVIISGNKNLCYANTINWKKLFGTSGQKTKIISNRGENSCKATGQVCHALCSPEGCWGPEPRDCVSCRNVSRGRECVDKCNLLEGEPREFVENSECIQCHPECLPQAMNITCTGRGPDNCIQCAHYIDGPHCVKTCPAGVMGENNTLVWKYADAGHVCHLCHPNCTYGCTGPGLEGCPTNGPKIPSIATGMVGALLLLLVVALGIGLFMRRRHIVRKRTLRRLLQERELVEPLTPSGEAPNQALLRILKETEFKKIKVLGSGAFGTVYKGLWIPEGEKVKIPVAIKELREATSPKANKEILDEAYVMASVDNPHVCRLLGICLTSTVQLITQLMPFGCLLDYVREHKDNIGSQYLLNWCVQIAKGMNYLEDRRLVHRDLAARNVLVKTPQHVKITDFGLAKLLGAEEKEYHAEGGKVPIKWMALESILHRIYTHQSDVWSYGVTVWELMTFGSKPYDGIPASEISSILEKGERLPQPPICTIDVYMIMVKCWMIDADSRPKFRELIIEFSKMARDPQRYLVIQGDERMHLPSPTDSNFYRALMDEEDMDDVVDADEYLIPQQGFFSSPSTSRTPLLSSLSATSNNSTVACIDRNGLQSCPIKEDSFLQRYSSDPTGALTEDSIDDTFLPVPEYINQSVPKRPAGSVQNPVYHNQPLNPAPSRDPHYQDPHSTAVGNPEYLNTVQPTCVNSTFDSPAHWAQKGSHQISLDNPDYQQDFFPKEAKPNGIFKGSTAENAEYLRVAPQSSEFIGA

In the case of `COc1ccc2nc(-c3ccc(-n4nnc5ccccc54)c(C)c3)sc2c1`, the viability at 24 h, 5 µM [1] is reported as 82.1%.

With `COc1ccc2nc(-c3ccc(-n4nnc5ccccc54)cc3)sc2c1` the viability at 24 h, 5 µM [1] was 44.1%, the Activity (Ca9-22 [2]) was “Active” and the Activity (Ca9-22 [3]) was “Active”. For the same molecule, the inhibition [4] was “Active”, the inhibition [5] was “Active” and the cytotoxicity at 24 h, 2 µM [6] was 20%. The inhibition (Ca9-22 [7]) was “Active”, the inhibition [8] was “Active” and the Activity (Ca9-22 [9]) was “Active”. For the same molecule, the inhibition [10] was “Active”, the inhibition [11] was “Active” and the Activity (Ca9-22 [12]) was “Active”. It also gave an inhibition at 2 µM (Ca9-22 [13]) of 68.7% and an Activity (Ca9-22 [14]) of 38.9%.

Molecule `CCc1ccc2nc(-c3ccc(-n4nnc5cc(OC)ccc54)c(C)c3)sc2c1` has a viability at 24 h, 5 µM [1] of 73.1%, an inhibition at 2 µM (Ca9-22 [13]) of 31.1% and an Activity (Ca9-22 [14]) of 70%.

`COc1ccc2c(c1)nnn2-c1ccc(-c2nc3ccccc3s2)cc1` gave a viability at 24 h, 5 µM [1] of 104%.

Molecule `COc1ccc2c(c1)nnn2-c1ccc(-c2nc3ccccc3s2)cc1C` has a viability at 24 h, 5 µM [1] of 79.6%, an inhibition at 2 µM (Ca9-22 [13]) of 18.5% and an Activity (Ca9-22 [14]) of 75.9%.

For `CCc1ccc2nc(-c3ccc(-n4nnc5cc(OC)ccc54)cc3)sc2c1`, the viability at 24 h, 5 µM [1] was 114%.

For `Cc1cc(-c2nc3ccccc3s2)ccc1-n1nnc2ccccc21`, the viability at 24 h, 5 µM [1] was 48.6%, the Activity (Ca9-22 [3]) was “Active” and the inhibition [4] was “Active”. For the same molecule, the inhibition [5] was “Active”, the inhibition (Ca9-22 [7]) was “Active” and the inhibition [11] was “Active”. It also gave an inhibition at 2 µM (Ca9-22 [13]) of 45.8% and an Activity (Ca9-22 [14]) of 47.6%.

Work on `CCc1ccc2nc(-c3ccc(-n4nnc5ccccc54)cc3)sc2c1` yielded a viability at 24 h, 5 µM [1] of 109%.

With `COc1ccc2c(c1)nnn2-c1ccc(-c2nc3ccc(C(F)(F)F)cc3s2)cc1C` the viability at 24 h, 5 µM [1] was 113%.

`COc1ccc2c(c1)nnn2-c1ccc(-c2nc3ccc(C(F)(F)F)cc3s2)cc1` showed a viability at 24 h, 5 µM [1] of 105%.

For `COc1ccc2c(c1)nnn2-c1ccc(-c2nc3ccc(OC)cc3s2)cc1C`, the viability at 24 h, 5 µM [1] was 63.3%.

In the case of `CCc1ccc2nc(-c3ccc(-n4nnc5ccccc54)c(C)c3)sc2c1`, the viability at 24 h, 5 µM [1] is reported as 50.2%, the Activity (Ca9-22 [3]) is reported as “Active” and the inhibition [4] is reported as “Active”. The inhibition [5] was “Active”, the inhibition (Ca9-22 [7]) was “Active” and the inhibition [11] was “Active”. The inhibition at 2 µM (Ca9-22 [13]) was 70.1% and the Activity (Ca9-22 [14]) was 47%.

`Cc1cc(-c2nc3ccc(C(F)(F)F)cc3s2)ccc1-n1nnc2ccccc21` gave a viability at 24 h, 5 µM [1] of 89.4%.

Work on `c1ccc2sc(-c3ccc(-n4nnc5ccccc54)cc3)nc2c1` yielded a viability at 24 h, 5 µM [1] of 95.5%.

For `COc1ccc2c(c1)nnn2-c1ccc(-c2nc3ccc(OC)cc3s2)cc1`, the viability at 24 h, 5 µM [1] was 81.1%, the inhibition at 2 µM (Ca9-22 [13]) was 51.7% and the Activity (Ca9-22 [14]) was 108.6%.

For `FC(F)(F)c1ccc2nc(-c3ccc(-n4nnc5ccccc54)cc3)sc2c1`, the viability at 24 h, 5 µM [1] was 91.8%.
